{"source": "patent US20070225245A1", "about": "“Viral vector driven mutant bacterial cytosine deaminase gene and uses thereof” (priority 1998, published 2007)", "key": {"MIA PaCa-2 xenografts": {"test_system": "MIA PaCa-2 xenografts", "test": "Subcutaneous human pancreatic tumor xenograft, tumor growth", "type": "in vivo, athymic nude mice", "procedure": "Treatment was started at the time of established tumor growth (Day 0 equal to 17 days after tumor cell injection). Animals were injected i.t. with PBS or 5×10^7 TCID50 of AdbCD-D314A on Days 0, 7, and 14, and then irradiated with 2 Gy on Days 1, 8 and 15 using a ^60Co gamma irradiator, and 400 mg/kg of 5-FC was i.p. administered at qd×5/week for 3 weeks starting on Day 1. Data points represent the mean change in tumor surface area relative to Day 0 for each group of animals.\nTo evaluate in vivo therapeutic efficacy of the combination of AdbCD-D314A/5-FC and radiation treatment, 16×10^6 MIA PaCa-2 tumor cells were resuspended 1:1 (v/v) in Matrigel (Becton Dickinson) and injected s.c. into female athymic nude mice. Treatment was started 17 days post-tumor cell injection at the time of established tumor growth, noted as Day 0. Animals were randomly divided into groups receiving different treatments: 1) AdbCD-D314A plus 5-FC; 2) AdbCD-D314A plus 5-FC in combination with radiation; 3) PBS plus 5-FC in combination with radiation; 4) PBS plus 5-FC. Two groups of mice (# 1 and 2) were injected i.t. with 5×10^7 TCID50 AdbCD-D314A on Days 0, 7, and 14. […] Tumor size was monitored twice a week using digital Vernier calipers. Tumor surface areas were calculated as width×length (mm^2)."}, "[1]": {"test_system": "Intracranial D54MG gliomas", "test": "Survival, intracranial glioma, HSV and 5-FC", "type": "in vivo, athymic nude mice", "conditions": "saline and 5-FC", "procedure": "Two days later, mice were begun on twice daily intraperitoneal injections of saline (1 ml) or 5-FC (500 mg/kg). Mice were followed for survival.\nStudies were undertaken to determine the efficacy of the HSV construct, M012, in in vivo murine glioma models. […] The median survival of animals receiving saline plus 5-FC was 34 days. In a similar study with the D54MG intracranial model, median survival of mice injected intratumorally with M012 and administered 5-FC was 40 days, compared to 27 days with M012 plus saline and 19 days with saline and 5-FC (FIG. 14)."}, "[2]": {"test_system": "Intracranial U87MG Human Gliomas", "test": "Survival, intracranial glioma, Ad, 5-FC and external beam radiation", "type": "in vivo, athymic nude mice", "procedure": "This therapeutic effect of AdCMVCD/5-FC on glioma cells could be further enhanced with concurrent fractionated ionizing external beam radiation (Table 9). U87MG cells (5×10^5) were stereotactically injected into the right frontal cortex of athymic nude mice. Tumors were established for 5 days before intratumoral injection of AdCMVCD (10^9 pfu/mouse). Mice were then treated IP with 5-FC (500 mg/kg bid) on days 2-9 post infection, irradiated with local external beam 330 cGy ^60Co radiation on days 4 and 7 post-infection, and monitored for survival. Kaplan-Meier survival curves and median and 20% survival values were calculated by standard methods."}, "U251MG [3]": {"test_system": "U251MG", "test": "Crystal violet cytotoxicity assay (5-FU, or 5-FC after Ad infection)", "type": "cell-based", "conditions": "Homo sapiens, U-251, 120 h, 5 days", "description": "(§1) Twenty-four hours later cells were infected with AdbCD-D314A or AdbCDwt at various MOI."}, "MIA PaCa-2": {"test_system": "MIA PaCa-2", "test": "Crystal violet cytotoxicity assay (5-FU, or 5-FC after Ad infection)", "type": "cell-based", "conditions": "Homo sapiens, 120 h, 5 days", "description": "as §1"}, "U87MG [4]": {"test_system": "U87MG", "test": "Crystal violet cytotoxicity assay (5-FU, or 5-FC after Ad infection)", "type": "cell-based", "conditions": "Homo sapiens, U-87 MG, 120 h, 5 days", "description": "as §1"}, "Panc2.03": {"test_system": "Panc2.03", "test": "Crystal violet cytotoxicity assay (5-FU, or 5-FC after Ad infection)", "type": "cell-based", "conditions": "Homo sapiens, Panc203, 120 h, 5 days", "description": "as §1"}, "BXPC-3": {"test_system": "BXPC-3", "test": "Crystal violet cytotoxicity assay (5-FU, or 5-FC after Ad infection)", "type": "cell-based", "conditions": "Homo sapiens, 120 h, 5 days", "description": "as §1"}, "PANC-1": {"test_system": "PANC-1", "test": "Crystal violet cytotoxicity assay (5-FU, or 5-FC after Ad infection)", "type": "cell-based", "conditions": "Homo sapiens, 120 h, 5 days", "description": "as §1"}, "S2-VP10": {"test_system": "S2-VP10", "test": "Crystal violet cytotoxicity assay (5-FU, or 5-FC after Ad infection)", "type": "cell-based", "conditions": "Homo sapiens, 120 h, 5 days", "description": "as §1"}, "S2-013": {"test_system": "S2-013", "test": "Crystal violet cytotoxicity assay (5-FU, or 5-FC after Ad infection)", "type": "cell-based", "conditions": "Homo sapiens, 120 h, 5 days", "description": "as §1"}, "D54MG": {"test_system": "D54MG", "test": "Crystal violet cytotoxicity assay (5-FU, or 5-FC after Ad infection)", "type": "cell-based", "conditions": "Homo sapiens, 120 h, 5 days", "description": "as §1"}, "LS174T": {"test_system": "LS174T", "test": "5-FU toxicity, MTS assay", "type": "cell-based", "conditions": "Homo sapiens, 120 h, 5 days", "procedure": "(§2) Tumor cells (5×10^4) were plated in 96 well plates and allowed to adhere overnight. Cells were then incubated continuously in the presence of increasing concentrations of 5-FU (0-200 μg/ml) and assayed for toxicity using an MTS assay (Promega, Madison Wis.) after 5-days. ICx values were calculated as previously described. U251MG glioma cells were as sensitive to 5-FU as LS174T and WiDR colon carcinoma cells, while D54MG, U87MG and U118MG glioma cells and AsPC-1 pancreatic carcinoma cells were 3-fold less sensitive (Table 2)."}, "U251MG [5]": {"test_system": "U251MG", "test": "5-FU toxicity, MTS assay", "type": "cell-based", "conditions": "Homo sapiens, U-251, 120 h, 5 days", "procedure": "as §2"}, "U118MG": {"test_system": "U118MG", "test": "5-FU toxicity, MTS assay", "type": "cell-based", "conditions": "Homo sapiens, U-118-MG, 120 h, 5 days", "procedure": "as §2"}, "U87MG [6]": {"test_system": "U87MG", "test": "5-FU toxicity, MTS assay", "type": "cell-based", "conditions": "Homo sapiens, U-87 MG, 120 h, 5 days", "procedure": "as §2"}, "WiDr": {"test_system": "WiDr", "test": "5-FU toxicity, MTS assay", "type": "cell-based", "conditions": "Homo sapiens, 120 h, 5 days", "procedure": "as §2"}, "ASPC-1": {"test_system": "ASPC-1", "test": "5-FU toxicity, MTS assay", "type": "cell-based", "conditions": "Homo sapiens, ASPC1, 120 h, 5 days", "procedure": "as §2"}, "[7]": {"conditions": "Saline (no virus) + 5-FC, no XRT"}}, "data": [{"compound": "Nc1nc(=O)[nH]cc1F", "note": "[5-FC, 5-fluorocytosine]", "values": [{"measurement": "mean time to tumor doubling", "setting": "MIA PaCa-2 xenografts; PBS plus 5-FC", "value": 14, "unit": "days"}, {"measurement": "mean time to tumor doubling", "setting": "MIA PaCa-2 xenografts; PBS plus 5-FC in combination with radiation", "value": 30, "unit": "days"}, {"measurement": "median survival", "setting": "[1]", "value": 19, "unit": "days"}, {"measurement": "Survival 20%", "setting": "[2]; Saline (no virus) + 5-FC + XRT", "value": 32}, {"measurement": "Survival Median", "setting": "[2]; Saline (no virus) + 5-FC + XRT", "value": 31}, {"measurement": "Survival 20%", "setting": "[2]; [7]", "value": 55}, {"measurement": "Survival Median", "setting": "[2]; [7]", "value": 28}]}, {"compound": "O=c1[nH]cc(F)c(=O)[nH]1", "note": "[5-FU, 5-fluorouracil]", "values": [{"measurement": "IC50", "setting": "U251MG [3]", "value": "2.5 ± 1.2", "unit": "mg/L"}, {"measurement": "IC50", "setting": "MIA PaCa-2", "value": 1.4, "unit": "mg/L"}, {"measurement": "IC50", "setting": "U87MG [4]", "value": "0.9 ± 0.5", "unit": "mg/L"}, {"measurement": "IC50", "setting": "Panc2.03", "value": 12.4, "unit": "mg/L"}, {"measurement": "IC50", "setting": "BXPC-3", "value": 0.1, "unit": "mg/L"}, {"measurement": "IC50", "setting": "PANC-1", "value": "1.5 ± 0.5", "unit": "mg/L"}, {"measurement": "IC50", "setting": "S2-VP10", "value": "2.7 ± 0.1", "unit": "mg/L"}, {"measurement": "IC50", "setting": "S2-013", "value": "0.5 ± 0.1", "unit": "mg/L"}, {"measurement": "IC50", "setting": "D54MG", "value": "3.9 ± 0.8", "unit": "mg/L"}, {"measurement": "IC20", "setting": "LS174T", "value": 0.11, "unit": "mg/L"}, {"measurement": "IC50", "setting": "LS174T", "value": 0.3, "unit": "mg/L"}, {"measurement": "IC80", "setting": "LS174T", "value": 2.33, "unit": "mg/L"}, {"measurement": "IC20", "setting": "U251MG [5]", "value": 0.07, "unit": "mg/L"}, {"measurement": "IC50", "setting": "U251MG [5]", "value": 0.38, "unit": "mg/L"}, {"measurement": "IC80", "setting": "U251MG [5]", "value": 3.81, "unit": "mg/L"}, {"measurement": "IC20", "setting": "U118MG", "value": 0.24, "unit": "mg/L"}, {"measurement": "IC50", "setting": "U118MG", "value": 1.06, "unit": "mg/L"}, {"measurement": "IC80", "setting": "U118MG", "value": 61.5, "unit": "mg/L"}, {"measurement": "IC20", "setting": "U87MG [6]", "value": 0.37, "unit": "mg/L"}, {"measurement": "IC50", "setting": "U87MG [6]", "value": 1.06, "unit": "mg/L"}, {"measurement": "IC80", "setting": "U87MG [6]", "value": 14, "unit": "mg/L"}, {"measurement": "IC20", "setting": "WiDr", "value": 0.03, "unit": "mg/L"}, {"measurement": "IC50", "setting": "WiDr", "value": 0.13, "unit": "mg/L"}, {"measurement": "IC80", "setting": "WiDr", "value": 1.7, "unit": "mg/L"}, {"measurement": "IC20", "setting": "ASPC-1", "value": 0.04, "unit": "mg/L"}, {"measurement": "IC50", "setting": "ASPC-1", "value": 1.58, "unit": "mg/L"}, {"measurement": "IC80", "setting": "ASPC-1", "value": 39.4, "unit": "mg/L"}]}]}
